From publication PMC8303725 (International Journal of Molecular Sciences, 2021)
pIC50: −log10 of the molar value. Read-outs that look alike come from different tables or passages of the source.

Experiments:
[1] = target: T1, Human Topo I (topoisomerase I) (Homo sapiens, UniProt P11387); test: Topo I DNA relaxation fluorescence plate assay (Inspiralis); type: biochemical
T1 construct: gene TOP1
T1 sequence (P11387 2-765): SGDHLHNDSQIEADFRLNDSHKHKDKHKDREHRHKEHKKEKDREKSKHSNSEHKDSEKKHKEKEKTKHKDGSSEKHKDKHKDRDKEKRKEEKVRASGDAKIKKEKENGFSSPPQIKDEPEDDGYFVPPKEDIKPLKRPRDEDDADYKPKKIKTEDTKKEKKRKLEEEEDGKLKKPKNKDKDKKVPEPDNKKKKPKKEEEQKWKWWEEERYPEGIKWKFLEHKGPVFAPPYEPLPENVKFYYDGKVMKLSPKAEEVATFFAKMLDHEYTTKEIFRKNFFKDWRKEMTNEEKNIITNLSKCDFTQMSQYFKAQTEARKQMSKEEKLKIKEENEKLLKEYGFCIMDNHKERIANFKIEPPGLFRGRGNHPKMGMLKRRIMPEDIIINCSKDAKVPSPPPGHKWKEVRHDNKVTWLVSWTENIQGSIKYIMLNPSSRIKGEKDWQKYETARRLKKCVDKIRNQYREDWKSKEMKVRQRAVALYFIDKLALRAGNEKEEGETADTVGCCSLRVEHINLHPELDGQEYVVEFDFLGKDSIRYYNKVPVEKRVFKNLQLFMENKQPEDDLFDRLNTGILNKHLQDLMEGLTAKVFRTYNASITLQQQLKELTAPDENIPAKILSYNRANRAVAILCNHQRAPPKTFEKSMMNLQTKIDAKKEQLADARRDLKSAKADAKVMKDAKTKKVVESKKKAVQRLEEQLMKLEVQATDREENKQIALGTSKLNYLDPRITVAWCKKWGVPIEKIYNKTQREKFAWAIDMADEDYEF

[2] = tested on: nicked decamer 1 (nicked DNA duplex with PEG(6) tethers) (DNA, duplex, nick between T5 and G6; PEG6 tether at both ends of the duplex, joining the strands into one chain) GCGTT/GTCGC/GCGACAACGC; test: 1H/13C HSQC with 24-13C compound; settings: 25 mM NaCl, 25 mM K3PO4; covalent; pH 6; 298 K; site tentatively NH2 of a base in nick
[3] = tested on: nicked decamer 1 (nicked DNA duplex with PEG(6) tethers) (DNA, duplex, nick between T5 and G6; PEG6 tether at both ends of the duplex, joining the strands into one chain) GCGTT/GTCGC/GCGACAACGC; test: DOSY NMR; settings: 25 mM NaCl, 25 mM K3PO4; D2O, pH 6, 25 °C; filtered mother liquor; equal diffusion coefficients; bound species may include bioconjugate, 4, SN38
[4] = tested on: nicked decamer 1 (nicked DNA duplex with PEG(6) tethers) (DNA, duplex, nick between T5 and G6; PEG6 tether at both ends of the duplex, joining the strands into one chain) GCGTT/GTCGC/GCGACAACGC; test: MALDI-MS of reaction product; settings: 25 mM NaCl, 25 mM K3PO4; covalent; biohybrid peak m/z 7290.9; pH 6

Compound: CCc1c2c(nc3ccc(O)cc13)-c1cc3c(c(=O)n1C2)COC(=O)[C@]3(O)CC [SN38]
- pIC50 ([1]; read-out: IC50): 4.39

Compound: CCc1c2c(nc3ccc(O)c(CN4CCOCC4)c13)-c1cc3c(c(=O)n1C2)COC(=O)[C@]3(O)CC [compound 3, 7-ethyl-9-(N-morpholino)methyl-10-hydroxycamptothecin]
- binding [2]: yes
- pIC50 [1]: 4.31
- binding [3]: yes

Compound: CCc1c2c(nc3ccc(O)c(CNC)c13)-c1cc3c(c(=O)n1C2)COC(=O)[C@]3(O)CC [compound 2, 7-ethyl-9-(N-methylamino)methyl-10-hydroxycamptothecin]
- pIC50 [1]: 4.00
- binding [4]: yes
